Source: patent publication US11225507B2, “Conformation switchable antimicrobial peptides and methods of using the same” (priority 2017, dated 2022)

Tests used:
[1] = system: E. coli DH5α; assay: Minimal inhibition concentration (MIC), E. coli DH5α; assay type: cell-based, Escherichia coli; details: pH 7.4
Method: (§1) Minimal inhibition concentration (MIC). Gram-negative bacteria, DH5α and MG1655 (E. coli) were grown in LB medium at 37° C. For determination of the MIC, polypeptides were dissolved in media using serial dilutions from a stock solution. Into each well of a 96-well plate was added 200 μL of each concentration and 2 μL of bacteria (1×10^8 CFU (colony forming units)) in medium. The plate was incubated at 37° C. The optical density readings of microorganism solutions were measured after 24 h incubation. The MIC was considered as the lowest concentration of peptide where no visual growth of bacteria was detected.

[2] = system: E. coli MG1655; assay: Minimal inhibition concentration (MIC), E. coli MG1655; assay type: cell-based, Escherichia coli; details: pH 7.4
Method: as §1

[3] = system: H. pylori SS1; assay: Anti-H. pylori efficacy in vivo (infected C57BL/6J mice); set-up: species or system Helicobacter pylori; details: oral gavage once daily for 3 d, 2.6 μmol/kg
Method: Anti-H. pylori efficacy in vivo. […] For triple therapy, mice were first administered omeprazole (a proton pump inhibitor) through oral gavage at a dose of 400 μmol/kg, followed by a lag time of 30 min before administration of amoxicillin (68.0 μmol/kg) and clarithromycin (19.1 μmol/kg). PL2 and PDL2 in 5% (vol/vol) DMSO (both at 2.6 μmol/kg) were administered through oral gavage once daily for a consecutive 3 d. Water solution with 5% DMSO was served as negative control group. Forty-eight hours after the last administration, mice were killed and the stomach was removed from the abdominal cavity. The stomach was cut along the greater curvature, and the gastric content was removed and rinsed with PBS. The stomach sections were used for assessment of bacterial colonization. For bacterial colonization, a gastric tissue section was suspended in 1 mL PBS and homogenized for H. pylori recovery. The homogenate was serially diluted and spotted onto Columbia agar plate containing vancomycin (20 μg/mL), amphotericin (2 μg/mL), bacitracin (30 μg/mL) and nalidixic acid (10 μg/mL). The plates were then incubated at 37° C. under microaerobic conditions for 5 d, and bacterial colonies were enumerated and adjusted for dilutions.

(PGA)18-r-(PHLG-MHH)20 [PL2]
minimal inhibitory concentration (MIC) [1]: higher than 70 μM
minimal inhibitory concentration (MIC) [2]: higher than 70 μM
decrease of bacterial burden in the stomach as compared with the control group [3]: ~100 times
